≈ marks a conversion by molar mass, not a printed value.
How the values were obtained:
S. aureus = assay: MIC, broth dilution method; format: cell-based; details: for MIC: Staphylococcus aureus, read-out: Antibacterial Activity against S. aureus MIC
Description: Antibacterial activity can be determined by several standard methods well known by those skilled in the art, including disc diffusions methods, broth dilution minimal inhibitory concentration (MIC) methods, etc., including the detailed method outlined below. Cultures of bacteria are initially brought up from the freezer by streaking a loopful onto agar plates under the appropriate conditions. For instance stocks are streaked onto chocolate agar and then incubated for 18 hours at 35-37° C. in a 5% CO2 incubator. Five to 10 colonies are picked from the chocolate agar plate for subculture to Brain-Heart Infusion (BHI) broth or Mueller Hinton broth or BHI containing 4% serum and incubated under the appropriate conditions. The ability of the test compound to act as an antimicrobial is determined by the ability to inhibit bacterial, algae, or fungal growth in vitro. The optical density of the culture of organisms in the presence of an active compound is compared to the optical density of the same organism untreated. The activity of the compounds is described as either negative or the lowest concentration inhibiting growth.

Compound | MIC (S. aureus) | melting point | Antibacterial Activity against S. aureus MIC (S. aureus; S. aureus)
C[C@H]1[C@H](CC(C)(C)C)CC1(c1ccc(O)cc1)c1ccc(O)cc1 (relative stereo) [Example 13, Trans-1,1-di(4-hydroxyphenyl)-3-(2,2-dimethylpropyl)-2-methylcyclobutane] | 3.1 µg/mL (≈ 9.55 µM) | – | –
C[C@H]1[C@@H](CC(C)(C)C)CC1(c1ccc(O)cc1)c1ccc(O)cc1 (relative stereo) [Example 14, Cis-1,1-di(4-hydroxyphenyl)-3-(2,2-dimethylpropyl)-2-methylcyclobutane] | 0.8 µg/mL (≈ 2.47 µM) | 79 to 81 °C | –
C[C@H]1[C@H](CC(C)(C)C)CC1(c1ccc(O)c(Cl)c1)c1ccc(O)c(Cl)c1 (relative stereo) [Example 26, Trans-1,1-Di(3-chloro-4-hydroxyphenyl)-3-(2,2-dimethylpropyl)-2-methylcyclobutane] | 0.8 µg/mL (≈ 2.03 µM) | 126 to 128 °C | –
Cc1cc(C2(c3cc(C)c(O)c(Cl)c3)C[C@@H](CC(C)(C)C)[C@@H]2C)cc(Cl)c1O (relative stereo) [Example 27, Trans-1,1-di(5-chloro-4-hydroxy-3-methylphenyl)-3-(2,2-dimethylpropyl)-2-methylcyclobutane] | 0.8 µg/mL (≈ 1.9 µM) | – | –
Cc1cc(C2(c3cc(C)c(O)c(Cl)c3)C[C@@H](CC(C)(C)C)[C@@H]2C)ccc1O (relative stereo) [Example 28, Trans-1-(4-hydroxy-3-methylphenyl)-1-(5-chloro-4-hydroxy-3-methylphenyl)-3-(2,2-dimethylpropyl)-2-methylcyclobutane] | 6.2 µg/mL (≈ 16 µM) | 138 to 140 °C | –
CCCCC1CC1(c1ccc(O)c(C)c1)c1ccc(O)c(C)c1 (stereo not shown) [Example 10, 1,1-Bis(4-hydroxy-3-methylphenyl)-2-n-butylcyclopropane] | 3 µg/mL (≈ 9.66 µM) | – | –
CC(C)(C)CC1CC(c2ccc(O)cc2)(c2ccc(O)cc2)C1 [Example 11, 1,1-Di(4-hydroxyphenyl)-3-(2,2-dimethylpropyl)cyclobutane] | 12.5 µg/mL (≈ 40.3 µM) | 182 to 184 °C | –
Cc1cc(C2(c3ccc(O)c(C)c3)CC(C(C)(C)C)C2)ccc1O [Example 16, 1,1-Di-(4-hydroxy-3-methylphenyl)-3-(1,1-dimethylethyl)cyclobutane] | 0.8 µg/mL (≈ 2.47 µM) | – | –
CC(C)(C)C1CC(c2ccc(O)cc2)(c2ccc(O)cc2)C1 [Example 17, 1,1-Di-(4-hydroxyphenyl)-3-(1,1-dimethylethyl)cyclobutane] | 6.2 µg/mL (≈ 20.9 µM) | – | –
CCCCC1CC1(c1ccc(O)cc1)c1ccc(O)cc1 (stereo not shown) [Example 18, 1,1-Di(4-hydroxyphenyl)-2-n-butylcyclopropane] | 3.1 µg/mL (≈ 11 µM) | – | –
CCCCCC1CC1(c1ccc(O)cc1)c1ccc(O)cc1 (stereo not shown) [Example 19, 1,1-Di(4-hydroxyphenyl)-2-n-pentylcyclopropane] | 6.2 µg/mL (≈ 20.9 µM) | – | –
CCCCC1CC1(c1ccc(O)c(Cl)c1)c1ccc(O)c(Cl)c1 (stereo not shown) [Example 20, 1,1-Di(3-chloro-4-hydroxyphenyl)-2-n-butylcyclopropane] | 1.6 µg/mL (≈ 4.55 µM) | – | –
CCCCC1CC1(c1ccc(O)c(Cl)c1)c1cc(Cl)c(O)c(Cl)c1 (stereo not shown) [Example 21, 1-(3-Chloro-4-hydroxyphenyl)-1-(4-hydroxy-3,5-dichlorophenyl)-2-n-butylcyclopropane] | 3.1 µg/mL (≈ 8.04 µM) | – | –
CCCCCC1CC1(c1ccc(O)c(Cl)c1)c1ccc(O)c(Cl)c1 (stereo not shown) [Example 22, 1,1-Di(3-chloro-4-hydroxyphenyl)-2-pentylcyclopropane] | 1.6 µg/mL (≈ 4.38 µM) | – | –
CCCCCC1CC1(c1ccc(O)c(Cl)c1)c1cc(Cl)c(O)c(Cl)c1 (stereo not shown) [Example 23, 1-(3-Chloro-4-hydroxyphenyl)-1-(4-hydroxy-3,5-dichlorophenyl)-2-pentylcyclopropane] | 1.6 µg/mL (≈ 4 µM) | – | –
C=CCc1cc(C2(c3ccc(O)c(CC=C)c3)CC(CCCC)C2)ccc1O [Example 33, 1,1-Di(3-allyl-4-hydroxyphenyl)-3-n-butylcyclobutane] | 1.6 µg/mL (≈ 4.25 µM) | – | –
CCCCCC1c2ccc(O)cc2-c2cc(O)ccc21 [Example 34, 9-Pentyl-9H-fluorene-3,6-diol] | 3.1 µg/mL (≈ 11.6 µM) | – | –
Trans-1,1-di-(4-hydroxy-3-methylphenyl)-3-(2,2-dimethylpropyl)-2-methylcyclobutane [Example 15] | – | – | 0.4 µg/mL

— patent publication US20050148570A1, “Novel substituted alkane compounds and uses thereof” (priority 2001, published 2005)
